Assay results reported in patent publication US10253071B2, “Selectin inhibitors, composition, and uses related thereto” (Beth Israel Deaconess Medical Center, Inc., priority 2014, dated 2019).
Where two headings read alike, the source gives them in different places. Square brackets hold non-standard residues; d marks the D form. Peptide text beside a SMILES is read from it. * marks the point of attachment. X1 = CC(=O)N[C@@H]1[C@@H](O[C@@H]2O[C@H](CO)[C@H](O)[C@H](O)[C@H]2O)[C@@H](O)[C@@H](CO[C@@H]2O[C@H](CO)[C@@H](O[C@@H]3O[C@H](CO)[C@H](O)[C@H](O[C@]4(C(=O)O)C[C@H](O)[C@@H](NC(C)=O)[C@H]([C@H](O)[C@H](O)CO)O4)[C@H]3O)[C@H](O[C@@H]3O[C@@H](C)[C@@H](O)[C@@H](O)[C@@H]3O)[C@H]2NC(C)=O)O[C@@H]1*; Phe(4-CH2SO3H) = N[C@@H](Cc1ccc(CS(=O)(=O)O)cc1)C(=O)O; Mca = COc1ccc2c(CC(=O)*)cc(=O)oc2c1

Legend:
[1] = test system: leukocyte binding to microvascular endothelium; test: Intravital microscopy of murine cremaster muscle microcirculation, leukocyte rolling; format: in vivo; conditions: mouse cremaster venules 30 to 40 μm, 4 μmol/kg IV, saline 40.8±1.7, p≤0.01
Method: Intravital microscopy was used to determine the ability of GsnP-6 to inhibit leukocyte binding to microvascular endothelium. PSGL-1 expressed on circulating leukocytes binds to selectins on endothelium; inducing leukocyte rolling to facilitate subsequent tight binding to integrin receptors. Inhibition of this interaction leads to an increase in rolling velocity. Intravital microscopy of the murine cremaster muscle microcirculation was performed on venules with a diameter of 30 to 40 μm. Seven venules per mouse (n=4, saline (control); n=3, GSnP-6, 4 μmol/kg IV) were analyzed and the velocities of 5 to 10 rolling leukocytes were determined in each venule by individually tracking leukocyte distance/time (μm/s). A significant increase in mean rolling velocity was observed after intravenous administration of GSnP-6 (FIG. GsnP-6: 74.9±3.4 μm/s, saline: 40.8±1.7 μm/s; p≤0.01).

[2] = target: T1, recombinant human P-selectin Fc chimera (Homo sapiens, UniProt P16109); test: Flow cytometry, inhibition of human P-selectin Fc chimera binding to human leukocytes; format: cell-based
T1 sequence (P16109 42-830): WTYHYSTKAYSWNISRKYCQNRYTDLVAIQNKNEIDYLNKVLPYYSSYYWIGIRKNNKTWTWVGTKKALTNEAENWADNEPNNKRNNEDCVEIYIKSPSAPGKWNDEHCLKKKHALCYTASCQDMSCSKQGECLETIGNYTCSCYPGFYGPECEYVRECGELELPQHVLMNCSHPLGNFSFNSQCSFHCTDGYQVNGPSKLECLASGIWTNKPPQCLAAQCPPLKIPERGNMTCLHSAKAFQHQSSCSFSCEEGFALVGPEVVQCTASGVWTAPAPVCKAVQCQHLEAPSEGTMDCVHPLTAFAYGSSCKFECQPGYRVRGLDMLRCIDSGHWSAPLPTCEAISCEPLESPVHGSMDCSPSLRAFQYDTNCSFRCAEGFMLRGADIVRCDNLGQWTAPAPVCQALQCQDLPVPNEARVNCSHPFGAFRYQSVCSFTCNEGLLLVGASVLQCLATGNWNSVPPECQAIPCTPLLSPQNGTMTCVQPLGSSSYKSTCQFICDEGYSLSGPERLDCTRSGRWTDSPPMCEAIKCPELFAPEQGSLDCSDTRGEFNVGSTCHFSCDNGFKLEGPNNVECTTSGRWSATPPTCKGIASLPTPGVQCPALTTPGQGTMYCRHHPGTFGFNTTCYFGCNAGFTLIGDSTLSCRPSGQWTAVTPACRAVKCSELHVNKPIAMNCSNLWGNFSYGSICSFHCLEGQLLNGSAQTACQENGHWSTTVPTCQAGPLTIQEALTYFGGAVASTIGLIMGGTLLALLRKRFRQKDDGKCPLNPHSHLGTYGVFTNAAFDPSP
Method: Flow cytometry was used to characterize the ability of GSnP-6 to block binding of selectin-IgG chimeras to murine and human leukocytes. Recombinant mouse P- or L-selectin Fc chimera (2 μg/mL) was incubated with murine neutrophils and GSnP-6 (0-30 μM). Likewise, recombinant human P-selectin or L-selectin Fc chimera were incubated with human peripheral blood neutrophils and monocytes, as well as the human U937 cell line in the presence of GSnP-6 (0-30 μM). Binding of selectin-IgG chimeras was detected with PE-conjugated anti-IgG antibody, quantified as mean fluorescent intensity, and plotted as percent inhibition. Specificity was confirmed with selectin-specific blocking antibodies.

mouse P-selectin = target: T2, mouse P-selectin (Mus musculus, UniProt Q01102); test: Biacore binding assay, mouse P-selectin
T2 sequence (Q01102 42-768): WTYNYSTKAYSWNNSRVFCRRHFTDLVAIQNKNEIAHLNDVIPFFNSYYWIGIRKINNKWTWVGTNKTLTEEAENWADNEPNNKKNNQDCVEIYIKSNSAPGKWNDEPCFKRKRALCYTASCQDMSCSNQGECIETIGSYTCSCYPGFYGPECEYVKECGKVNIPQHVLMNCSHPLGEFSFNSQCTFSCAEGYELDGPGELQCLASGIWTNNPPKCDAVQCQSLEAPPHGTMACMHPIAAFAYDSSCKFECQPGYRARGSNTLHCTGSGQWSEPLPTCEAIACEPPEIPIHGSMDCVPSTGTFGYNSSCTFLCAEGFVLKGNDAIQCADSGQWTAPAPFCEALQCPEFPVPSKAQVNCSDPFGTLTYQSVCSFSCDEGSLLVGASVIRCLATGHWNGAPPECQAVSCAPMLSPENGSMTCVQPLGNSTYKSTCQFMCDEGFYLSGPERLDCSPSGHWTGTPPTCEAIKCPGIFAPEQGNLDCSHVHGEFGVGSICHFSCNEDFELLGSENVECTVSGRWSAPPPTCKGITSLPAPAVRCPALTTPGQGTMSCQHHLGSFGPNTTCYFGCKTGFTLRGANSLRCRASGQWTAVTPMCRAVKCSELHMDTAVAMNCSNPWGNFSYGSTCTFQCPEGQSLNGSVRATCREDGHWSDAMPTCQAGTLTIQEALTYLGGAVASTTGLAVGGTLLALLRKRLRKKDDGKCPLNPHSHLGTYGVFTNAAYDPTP
Method: Bound peptides were detected using Alexa-488 labeled anti-human IgG antibody (5 μg/mL). Three lectins RCA-1, AAL, and PNA were used to confirm the sequence of enzymatic steps. Monoclonal antibodies CHO131, PSG2 antibody and PL-1 were used to confirm the presence of SLex, tyrosine sulfates, and the peptide sequence, respectively. Biacore binding analysis to human P-selectin with observed rate constants for (D) GSnP-6, kon 3.1×10^5 M^−1s^−1, koff 6.9×10^3 M^−1s^−; GSn2P-6, kon6.4×10^5 M^−1s^−1, koff 6.8×10^3 M^−1s. Biacore binding analysis to mouse P-selectin with observed rate constants for (E) GsnP-6, kon 4.9×10^4 M^−1s^−1, koff 8.0×10^3 M^−1s^−; GSn2P-6 kon 5.3×10^4 M^−1s^−1, koff 9.0×10^3 M^−1s. (F) Temperature- and pH-dependent stability studies of GSnP-6.
Dissociation constants (Kd) were determined using a Biacore binding assay after initial capture of biotinylated GS(n)P-6 onto streptavidin-coated sensor chips followed by flow through of P-, L- or E-sel-Ig (2.5 to 60 μg/mL). […] The Kd of GSnP-6 to murine P-selectin was ˜9-fold lower than to human P-selectin.

Structure (SMILES): COc1ccc2c(CC(=O)NCCCC[C@H](N)C(=O)N[C@@H](CCC(=O)O)C(=O)N[C@@H](Cc3ccc(CS(=O)(=O)O)cc3)C(=O)N[C@@H](CCC(=O)O)C(=O)N[C@@H](Cc3ccc(CS(=O)(=O)O)cc3)C(=O)N[C@@H](CC(C)C)C(=O)N[C@@H](CC(=O)O)C(=O)N[C@@H](Cc3ccc(CS(=O)(=O)O)cc3)C(=O)N[C@@H](CC(=O)O)C(=O)N[C@@H](Cc3ccccc3)C(=O)N[C@@H](CC(C)C)C(=O)N3CCC[C@H]3C(=O)N[C@@H](CCC(=O)O)C(=O)N[C@H](C(=O)N[C@@H](CCC(=O)O)C(=O)N3CCC[C@H]3C(=O)N[C@@H](CC(C)C)C(=O)O)[C@@H](C)O[C@H]3O[C@H](CO[C@@H]4O[C@H](CO)[C@@H](O[C@@H]5O[C@H](CO)[C@H](O)[C@H](O[C@]6(C(=O)O)C[C@H](O)[C@@H](NC(C)=O)[C@H]([C@H](O)[C@H](O)CO)O6)[C@H]5O)[C@H](O[C@@H]5O[C@@H](C)[C@@H](O)[C@@H](O)[C@@H]5O)[C@H]4NC(C)=O)[C@H](O)[C@H](O[C@@H]4O[C@H](CO)[C@H](O)[C@H](O)[C@H]4O)[C@H]3NC(C)=O)cc(=O)oc2c1 [GSnP-6] (H-K(Mca)E[Phe(4-CH2SO3H)]E[Phe(4-CH2SO3H)]LD[Phe(4-CH2SO3H)]DFLPET(X1)EPL-OH)
- mean leukocyte rolling velocity [1]: increased leukocyte rolling velocity
- mean leukocyte rolling velocity ([1]; listed as GsnP-6): 74.9±3.4 μm/s
- IC50 ([2]; human U-937 cells, GSnP-6 0-30 μM, read-out: IC50, P-selectin dependent interactions, human U-937 cells): ~8 µM
- IC50 ([2]; human peripheral blood monocytes, read-out: IC50, P-selectin dependent interactions, human monocytes): ~30 µM
- IC50 ([2]; human peripheral blood neutrophils (PMN), read-out: IC50, P-selectin dependent interactions, human PMN): ~30 µM
- Kd to murine P-selectin relative to human P-selectin (mouse P-selectin; printed as fold lower than to human P-selectin): ~9 fold
- koff (mouse P-selectin; read-out: koff, mouse P-selectin): 0.008 s⁻¹
- kon (mouse P-selectin; read-out: kon, mouse P-selectin): 49000 M⁻¹ s⁻¹
